Earlier results, collected in patent publication US20120259154A1, “In Vivo Immunomagnetic Hyperthermia Platform for Any Cell or Virus Having a Target Surface Receptor” (IVDiagnostics, Inc., priority 2011, published 2012).

Details: following intravenous administration

folate-FITC
t1/2 (clearance from the blood): 3.5 min
